The experiment deals with T1, PDGFRB (PDGFR beta) (Homo sapiens, UniProt P09619).
T1 construct: purchased Thermo Fisher Scientific (Life Technologies) SelectScreen
Description: SelectScreen Z'LYTE. Type of experiment: biochemical. In outline:
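SelectScreen broad panel; activity (Z'LYTE, Adapta) plus binding formats. ATP: Km app for CSF1R Z'LYTE; 10 for CAMK1 Adapta. Readout = % per kinase.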

The results in this text go back to PMC6934184, “Selective DNA-PKcs inhibition extends the therapeutic index of localized radiotherapy and chemotherapy” (The Journal of Clinical Investigation, 2019).

T1 sequence (P09619 33-1106): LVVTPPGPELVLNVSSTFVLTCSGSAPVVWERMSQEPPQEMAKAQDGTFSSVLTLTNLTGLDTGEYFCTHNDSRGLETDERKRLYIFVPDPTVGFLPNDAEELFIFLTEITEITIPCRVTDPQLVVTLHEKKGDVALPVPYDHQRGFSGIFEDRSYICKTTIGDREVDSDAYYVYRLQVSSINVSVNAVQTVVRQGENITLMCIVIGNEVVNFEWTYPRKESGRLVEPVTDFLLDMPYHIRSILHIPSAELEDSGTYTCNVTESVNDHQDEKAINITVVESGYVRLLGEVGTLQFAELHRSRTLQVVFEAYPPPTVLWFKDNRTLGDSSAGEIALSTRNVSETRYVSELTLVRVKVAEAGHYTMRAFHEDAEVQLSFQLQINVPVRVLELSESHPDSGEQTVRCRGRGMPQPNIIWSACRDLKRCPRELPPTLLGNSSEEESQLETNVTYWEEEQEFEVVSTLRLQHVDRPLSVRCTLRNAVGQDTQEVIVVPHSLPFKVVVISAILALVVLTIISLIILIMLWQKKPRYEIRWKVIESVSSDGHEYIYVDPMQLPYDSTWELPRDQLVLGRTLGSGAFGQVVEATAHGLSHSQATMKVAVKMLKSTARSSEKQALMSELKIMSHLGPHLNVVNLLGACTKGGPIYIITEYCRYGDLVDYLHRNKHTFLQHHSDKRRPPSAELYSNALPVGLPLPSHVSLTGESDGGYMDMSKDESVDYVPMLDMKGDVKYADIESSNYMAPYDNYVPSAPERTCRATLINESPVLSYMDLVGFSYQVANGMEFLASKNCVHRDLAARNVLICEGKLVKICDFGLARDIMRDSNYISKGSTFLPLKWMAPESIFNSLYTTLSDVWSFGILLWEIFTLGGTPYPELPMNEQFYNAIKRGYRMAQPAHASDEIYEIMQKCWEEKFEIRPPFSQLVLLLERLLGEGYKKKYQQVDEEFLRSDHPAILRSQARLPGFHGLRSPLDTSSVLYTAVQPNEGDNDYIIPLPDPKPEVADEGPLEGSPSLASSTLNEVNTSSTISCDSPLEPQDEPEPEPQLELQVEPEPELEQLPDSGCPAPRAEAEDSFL

The term inhibition denotes how much of the control response was suppressed. High values mean a response far below the control, low ones a response near the control. As for `CN(C(=O)CN1CCOCC1)c1ccc2sc3c(-c4cccc5c(=O)cc(N6CC7CCC(C6)O7)oc45)cccc3c2c1` [NU5455], the inhibition at 1 µM was 11%.
